Experiments:
[1] = molecular target: T1, Glucocorticoid receptor (Homo sapiens, UniProt P04150); conditions: hela s3; also: in other assays of this panel Not Active means under 50% inhibition at 10 µM
T1 sequence (P04150 whole entry): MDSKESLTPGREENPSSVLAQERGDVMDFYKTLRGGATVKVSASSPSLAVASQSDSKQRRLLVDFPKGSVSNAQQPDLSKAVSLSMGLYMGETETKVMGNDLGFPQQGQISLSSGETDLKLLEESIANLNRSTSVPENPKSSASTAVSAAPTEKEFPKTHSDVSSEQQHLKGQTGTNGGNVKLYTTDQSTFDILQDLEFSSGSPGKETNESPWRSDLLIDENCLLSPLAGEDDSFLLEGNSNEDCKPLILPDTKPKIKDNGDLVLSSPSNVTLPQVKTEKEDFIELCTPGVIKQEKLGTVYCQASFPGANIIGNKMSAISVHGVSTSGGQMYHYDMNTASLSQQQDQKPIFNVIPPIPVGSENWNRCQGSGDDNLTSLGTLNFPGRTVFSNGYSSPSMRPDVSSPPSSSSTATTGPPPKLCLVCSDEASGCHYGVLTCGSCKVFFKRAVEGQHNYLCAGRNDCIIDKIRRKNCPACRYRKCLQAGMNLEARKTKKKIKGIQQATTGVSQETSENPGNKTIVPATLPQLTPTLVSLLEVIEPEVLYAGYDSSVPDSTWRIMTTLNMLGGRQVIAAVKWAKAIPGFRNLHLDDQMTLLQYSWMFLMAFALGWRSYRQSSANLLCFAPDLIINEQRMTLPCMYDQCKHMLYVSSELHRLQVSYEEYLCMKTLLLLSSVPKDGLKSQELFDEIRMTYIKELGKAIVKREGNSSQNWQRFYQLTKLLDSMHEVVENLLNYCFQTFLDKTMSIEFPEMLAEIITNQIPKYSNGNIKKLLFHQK

[2] = DRUGMATRIX: Tumor Necrosis Factor (TNF), Non-Selective radioligand binding (ligand: [125I] TNF-alpha); assay type: cell membranes, Membrane; conditions: u-937; Not Active = under 50% inhibition at 10 µM
[3] = molecular target: T2, Cytochrome P450 1A2 (Homo sapiens, UniProt P05177); conditions: bti-tn-5b1-4; also: in other assays of this panel Not Active means under 50% inhibition at 10 µM
T2 sequence (P05177 whole entry): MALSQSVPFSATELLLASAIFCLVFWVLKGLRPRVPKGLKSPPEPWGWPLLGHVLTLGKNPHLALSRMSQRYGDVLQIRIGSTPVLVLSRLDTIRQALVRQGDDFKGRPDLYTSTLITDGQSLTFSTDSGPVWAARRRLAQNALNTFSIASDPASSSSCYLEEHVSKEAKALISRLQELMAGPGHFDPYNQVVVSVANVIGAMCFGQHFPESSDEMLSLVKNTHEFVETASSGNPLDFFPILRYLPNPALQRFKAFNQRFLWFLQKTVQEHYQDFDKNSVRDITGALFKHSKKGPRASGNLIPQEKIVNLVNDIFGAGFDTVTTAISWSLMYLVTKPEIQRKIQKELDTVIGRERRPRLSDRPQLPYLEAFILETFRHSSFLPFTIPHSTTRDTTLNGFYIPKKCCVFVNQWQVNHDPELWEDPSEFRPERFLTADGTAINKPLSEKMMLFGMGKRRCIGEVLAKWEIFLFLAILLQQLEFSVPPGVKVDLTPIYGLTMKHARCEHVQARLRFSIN

[4] = molecular target: T3, Substance-K receptor (Homo sapiens, UniProt P21452); assay type: cell membranes, CHO, Membrane; conditions: cho; also: in other assays of this panel Not Active means under 50% inhibition at 10 µM
T3 sequence (P21452 whole entry): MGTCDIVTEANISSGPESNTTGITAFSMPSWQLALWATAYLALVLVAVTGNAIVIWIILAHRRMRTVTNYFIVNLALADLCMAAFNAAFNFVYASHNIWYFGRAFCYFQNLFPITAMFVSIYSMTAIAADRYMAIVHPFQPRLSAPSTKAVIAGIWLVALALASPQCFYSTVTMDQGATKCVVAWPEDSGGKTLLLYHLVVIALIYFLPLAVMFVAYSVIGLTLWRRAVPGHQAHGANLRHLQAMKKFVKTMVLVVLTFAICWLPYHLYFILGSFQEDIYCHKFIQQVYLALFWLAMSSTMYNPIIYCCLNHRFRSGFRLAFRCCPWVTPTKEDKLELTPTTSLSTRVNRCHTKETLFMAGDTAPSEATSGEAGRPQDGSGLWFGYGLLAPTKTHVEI

[5] = DRUGMATRIX: Platelet-Derived Growth Factor (PDGF) radioligand binding (ligand: [125I] PDGF); assay type: cell-based; conditions: nih3t3; Not Active = under 50% inhibition at 10 µM
[6] = molecular target: T4, Muscarinic acetylcholine receptor M5 (Homo sapiens, UniProt P08912); assay type: cell membranes, CHO-K1, Membrane; conditions: cho-k1; also: in other assays of this panel Not Active means under 50% inhibition at 10 µM
T4 sequence (P08912 whole entry): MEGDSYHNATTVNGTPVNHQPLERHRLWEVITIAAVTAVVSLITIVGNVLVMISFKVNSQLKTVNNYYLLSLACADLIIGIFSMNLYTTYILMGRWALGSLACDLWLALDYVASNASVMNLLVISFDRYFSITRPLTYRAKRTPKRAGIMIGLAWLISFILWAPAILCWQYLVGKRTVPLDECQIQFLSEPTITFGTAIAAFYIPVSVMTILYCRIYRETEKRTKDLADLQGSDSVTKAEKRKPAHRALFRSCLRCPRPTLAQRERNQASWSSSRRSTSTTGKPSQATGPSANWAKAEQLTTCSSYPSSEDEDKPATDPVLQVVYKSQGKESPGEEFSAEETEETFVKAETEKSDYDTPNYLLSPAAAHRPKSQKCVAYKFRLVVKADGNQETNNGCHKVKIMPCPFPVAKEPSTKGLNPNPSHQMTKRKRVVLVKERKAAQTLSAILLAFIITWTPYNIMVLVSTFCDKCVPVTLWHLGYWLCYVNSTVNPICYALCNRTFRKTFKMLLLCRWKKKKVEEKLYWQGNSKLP

[7] = DRUGMATRIX: Interleukin IL-1 radioligand binding (ligand: [125I] interleukin 1beta); assay type: cell membranes, Membrane; conditions: nih3t3; Not Active = under 50% inhibition at 10 µM
[8] = molecular target: T5, C-X-C chemokine receptor type 2 (Homo sapiens, UniProt P25025); assay type: cell membranes, Membrane; conditions: cho-k1; also: in other assays of this panel Not Active means under 50% inhibition at 10 µM
T5 sequence (P25025 whole entry): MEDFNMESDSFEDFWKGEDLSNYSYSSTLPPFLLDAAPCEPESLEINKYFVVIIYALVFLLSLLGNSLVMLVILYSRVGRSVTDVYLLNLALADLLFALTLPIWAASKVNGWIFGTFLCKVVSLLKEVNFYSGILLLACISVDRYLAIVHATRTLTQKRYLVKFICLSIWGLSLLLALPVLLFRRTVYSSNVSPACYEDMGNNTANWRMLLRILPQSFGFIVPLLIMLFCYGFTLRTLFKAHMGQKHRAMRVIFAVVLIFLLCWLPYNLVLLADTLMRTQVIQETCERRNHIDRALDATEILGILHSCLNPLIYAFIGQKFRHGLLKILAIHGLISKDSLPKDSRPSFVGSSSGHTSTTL

O=c1[nH]c(=O)n([C@H]2C[C@H](O)[C@@H](CO)O2)cc1I [IDOXURIDINE]
Not Active: IC50 [1] | IC50 [2] | Ki [2] | IC50 [3] | Ki [3] | IC50 [4] | IC50 [5] | Ki [5] | IC50 [6] | IC50 [7] | Ki [7] | IC50 [8]

CNNCc1ccc(C(=O)NC(C)C)cc1 [PROCARBAZINE]
Not Active: IC50 [1] | IC50 [2] | Ki [2] | IC50 [3] | Ki [3] | IC50 [4] | IC50 [5] | Ki [5] | IC50 [6] | IC50 [7] | Ki [7] | IC50 [8]

LEAD (II) ACETATE
Not Active: IC50 [1] | Ki [1] | IC50 [2] | Ki [2] | IC50 [3] | Ki [3] | IC50 [4] | Ki [4] | IC50 [5] | Ki [5] | IC50 [6] | Ki [6] | IC50 [7] | Ki [7] | IC50 [8] | Ki [8]

COc1ccc(C[C@H]2NC[C@H](O)[C@H]2OC(C)=O)cc1 [ANISOMYCIN]
Not Active: IC50 [1] | Ki [1] | IC50 [2] | Ki [2] | IC50 [3] | Ki [3] | IC50 [4] | Ki [4] | IC50 [5] | Ki [5] | IC50 [6] | Ki [6] | IC50 [7] | Ki [7] | IC50 [8] | Ki [8]

— ChEMBL document CHEMBL1909046, “DrugMatrix in vitro pharmacology data”
